# According to ChEMBL document CHEMBL5385859, “Research progress and challenges of TRPV1 channel modulators as a prospective therapy for diabetic neuropathic pain” (Eur J Med Chem, 2023):
# Assays:
# [1] = Lipophilicity, […] of the compound at pH 6.5; type: physicochemical; settings: buffer
# [2] = molecular target: T1, Transient receptor potential cation channel subfamily V member 1 (Homo sapiens, UniProt Q8NER1); assay: Antagonist activity at human recombinant TPRV1
# [3] = Lipophilicity, log P of the compound in PBS buffer; type: physicochemical
# [4] = molecular target: T1, Transient receptor potential cation channel subfamily V member 1; assay: Binding affinity to human TRPV1 assessed as inhibition constant by SPR analysis
# [5] = molecular target: T1, Transient receptor potential cation channel subfamily V member 1; assay: Antagonist activity at TRPV1 (unknown origin)
# [6] = species: Mus musculus; assay: Analgesic activity in CCI-induced neuropathic pain in wild type C57BL/6 mouse model assessed as reduction in paw threshold pain measured after 2 hrs; type: functional
# [7] = molecular target: T1, Transient receptor potential cation channel subfamily V member 1; assay: Inhibition of TRPV1 (unknown origin)
# [8] = tested on: Mus musculus; assay: Analgesic activity in CCI-induced neuropathic pain mouse model assessed as increase in mechanical paw withdrawal threshold at 5 mg/kg,ip administration measured after 30 mins by von frey test; type: functional, organism-based; settings: 0.5 h
# [9] = molecular target: T1, Transient receptor potential cation channel subfamily V member 1; assay: Agonist activity at human TRPV1 overexpressed in HEK293 cells incubated for 1 hr by Fluo-4 AM dye based microscopic analysis; type: cell-based
# [10] = molecular target: T1, Transient receptor potential cation channel subfamily V member 1; assay: Activation of human TRPV1 expressed in HEK293F cells; type: cell-based
# T1 sequence (Q8NER1 whole entry): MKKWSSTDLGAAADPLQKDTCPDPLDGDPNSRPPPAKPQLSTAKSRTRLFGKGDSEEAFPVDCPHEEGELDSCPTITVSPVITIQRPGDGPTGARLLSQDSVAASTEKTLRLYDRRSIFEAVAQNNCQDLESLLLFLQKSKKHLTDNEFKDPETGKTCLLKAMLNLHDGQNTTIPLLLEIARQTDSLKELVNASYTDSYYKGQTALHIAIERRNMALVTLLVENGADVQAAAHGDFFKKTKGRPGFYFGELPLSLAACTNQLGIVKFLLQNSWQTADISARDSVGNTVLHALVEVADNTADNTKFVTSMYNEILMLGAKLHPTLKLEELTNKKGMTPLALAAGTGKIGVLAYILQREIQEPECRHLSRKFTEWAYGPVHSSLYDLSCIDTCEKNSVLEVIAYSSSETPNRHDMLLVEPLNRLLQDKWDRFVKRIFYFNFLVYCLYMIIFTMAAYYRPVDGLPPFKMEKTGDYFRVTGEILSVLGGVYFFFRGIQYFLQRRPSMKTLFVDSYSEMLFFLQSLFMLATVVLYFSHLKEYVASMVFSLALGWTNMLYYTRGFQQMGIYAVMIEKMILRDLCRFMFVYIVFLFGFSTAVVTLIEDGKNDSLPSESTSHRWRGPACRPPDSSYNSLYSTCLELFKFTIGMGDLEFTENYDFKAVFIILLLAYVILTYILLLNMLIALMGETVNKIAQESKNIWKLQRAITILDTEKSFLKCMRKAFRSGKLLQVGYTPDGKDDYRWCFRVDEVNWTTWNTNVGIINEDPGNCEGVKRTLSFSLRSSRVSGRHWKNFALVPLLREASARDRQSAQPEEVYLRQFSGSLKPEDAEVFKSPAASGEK
smiles,measurement,setting,value
C[C@H](NC(=O)Cn1cnc2ccc(F)c(F)c21)c1ccc(C(C)(C)C)cc1,logD,[1],4.34
same,IC50,[2],5 nM
CNCC1CCCCN1C(=O)Oc1ccc(CNC(=O)CCCC/C=C/C(C)C)cc1OC (centres undefined) [VOCACAPSAICIN],logP,[3],4.32
CC(C)(C)C(=O)OCC(CNC(=S)NCc1ccc(NS(C)(=O)=O)c(F)c1)Cc1ccccc1 (centres undefined),Ki,[4],7.8 nM
COc1cc(CNC(=O)CCCC/C=C/C(C)C)ccc1O [CAPSAICIN],logP,[3],3.74
CC(C)(C)c1ccc(CNC(=S)NCc2ccc(NS(C)(=O)=O)cc2)cc1,IC50,[5],0.11 nM
Cc1ccc(N2c3cccc(C(=O)Nc4ccc(OCC(F)(F)F)nc4)c3OC[C@@H]2CO)nc1 [JTS-653],logD,[1],3.83
same,IC50,[2],236 nM
O=C(Nc1ccccc1Br)N[C@@H]1CCN(c2ccc(C(F)(F)F)cn2)C1 [SB-705498],Activity,[6],8.8 nM
same,logD,[1],3.98
CC(C)=CCCC1(C)CC1CO (centres undefined),logP,[3],2.5
CC(C)c1cccc(C(C)C)c1O [PROPOFOL],IC50,[7],5.05 nM
same,logP,[3],4.15
O=C(Nc1ccc(C(F)(F)F)cn1)N1CC=C(c2ncc([C@H](O)CO)cc2Cl)CC1,logD,[1],2.11
COc1cc(C/N=C(\S)NCc2ccc(Cl)cc2)cc(I)c1O,IC50,[5],106 nM
C=C(C)[C@]12C[C@@H](C)[C@@]34O[C@](Cc5ccccc5)(O[C@@H]1[C@@H]3C=C(COC(=O)Cc1ccc(O)c(OC)c1)C[C@]1(O)C(=O)C(C)=C[C@@H]41)O2 [RESINIFERATOXIN],EC50,[8],920 nM
CC(C)(O)c1ccccc1-c1ccc2[nH]c(/C=C/c3ccc(C(F)(F)F)cc3)nc2c1,logD,[1],6.27
CCCc1nc(C(F)(F)F)ccc1/C=C/C(=O)N[C@H](C)c1cc(F)c(NS(C)(=O)=O)c(F)c1,logD,[1],3.67
O=C(Nc1ccc(C(F)(F)F)cc1)N1CC=C(c2ncc([C@H](O)CO)cc2Cl)CC1,IC50,[9],33.8 nM
CC(=O)Nc1nc2c(Oc3cc(-c4ccc(C(F)(F)F)cc4)ncn3)cccc2s1 [AMG-517],Activity,[6],760 nM
CC(C)(C)c1ccc2c(c1)CC[C@H]2NC(=O)Nc1cccc2[nH]ncc12 [ABT-102],logD,[1],4.59
O=C(Nc1cccc2cnccc12)N1CCC[C@H]1CNc1ccc(Br)cc1,IC50,[10],84 nM
CC(C)c1nc2cc(O)ccc2c(=O)n1-c1ccc(C#N)cc1,logD,[1],3.45
CC(C)(C)c1ccc(CNC(=S)NCc2ccc(NS(C)(=O)=O)c(F)c2)cc1,IC50,[5],8 nM
